# ChEMBL document CHEMBL1201862, “PubChem BioAssay data set” (2004)
#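 Test compounds were applied to cells in 96-well plates for 48 hours at 5 doses. GI50 = concentration required for 50% inhibition of growth.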 The source made the active and inactive calls. No stated cut-off is given here; in the data, active = GI50 up to about 1.1 µM and inactive = higher. Square brackets hold non-standard residues; d marks the D form. Peptide text beside a SMILES is read from it. 2Nal = N[CH](Cc1ccc2ccccc2c1)C(=O)O
# Legend:
# Assay in all cases: growth of human tumour cells (NCI), 48 h
# SNB-75 = tested on: SNB-75
# TK-10 = tested on: TK-10
# SNB-19 = tested on: SNB-19
# PC-3 = tested on: PC-3
# SF-268 = tested on: SF-268
# EKVX = tested on: EKVX
# M14 = tested on: M14
# BT-549 = tested on: BT-549
# HT-29 = tested on: HT-29
# SF-295 = tested on: SF-295
# NCI-H23 = tested on: NCI-H23
# K562 = tested on: K562
# Malme-3M = tested on: Malme-3M
# Hs-578T = tested on: Hs-578T
# RXF 393 = tested on: RXF 393
# UO-31 = tested on: UO-31
# UACC-257 = tested on: UACC-257
# UACC-62 = tested on: UACC-62
# LOX IMVI = tested on: LOX IMVI
# SR = tested on: SR
SMILES,GI50 (SNB-75),GI50 (TK-10),GI50 (SNB-19),GI50 (PC-3),GI50 (SF-268),GI50 (EKVX),GI50 (M14),GI50 (BT-549),GI50 (HT-29),GI50 (SF-295),GI50 (NCI-H23),GI50 (K562),GI50 (Malme-3M),GI50 (Hs-578T),GI50 (RXF 393),GI50 (UO-31),GI50 (UACC-257),GI50 (UACC-62),GI50 (LOX IMVI),GI50 (SR)
O=C(/C=C/c1ccc(O)c(O)c1)NCCc1ccc(-c2ccccc2)cc1,> 100 µM (inactive),19.1 µM (inactive),> 100 µM (inactive),> 100 µM (inactive),31.8 µM (inactive),> 100 µM (inactive),33.4 µM (inactive),74.5 µM (inactive),63.5 µM (inactive),40.8 µM (inactive),68.4 µM (inactive),27.2 µM (inactive),17.9 µM (inactive),> 100 µM (inactive),57.1 µM (inactive),94.8 µM (inactive),> 100 µM (inactive),–,–,–
Cc1c(C)n(-c2ccccc2)c2nc(S(C)(=O)=O)nc(S(C)(=O)=O)c12,19.3 µM (inactive),1.58 µM (inactive),3.3 µM (inactive),5.06 µM (inactive),14 µM (inactive),5.41 µM (inactive),1.62 µM (inactive),–,1.92 µM (inactive),16.9 µM (inactive),7.82 µM (inactive),1.4 µM (inactive),1.4 µM (inactive),16.1 µM (inactive),0.475 µM (active),1.71 µM (inactive),1.64 µM (inactive),3.28 µM (inactive),1.71 µM (inactive),1 µM (active)
O=C1NC(=O)C(CC(C(=O)C(=O)Nc2ccccc2Cl)C(=O)c2ccc3ccccc3c2)C(=O)N1 (configuration not stated),> 100 µM (inactive),> 100 µM (inactive),> 100 µM (inactive),> 100 µM (inactive),> 100 µM (inactive),> 100 µM (inactive),> 100 µM (inactive),> 100 µM (inactive),> 100 µM (inactive),> 100 µM (inactive),> 100 µM (inactive),–,–,> 100 µM (inactive),> 100 µM (inactive),63.7 µM (inactive),> 100 µM (inactive),> 100 µM (inactive),> 100 µM (inactive),–
CC1(C)C=[N+]([O-])C(C)(C)N1O,–,> 10 µM (inactive),> 10 µM (inactive),> 10 µM (inactive),> 10 µM (inactive),> 10 µM (inactive),> 10 µM (inactive),> 10 µM (inactive),> 10 µM (inactive),> 10 µM (inactive),> 10 µM (inactive),> 10 µM (inactive),> 10 µM (inactive),–,> 10 µM (inactive),> 10 µM (inactive),> 10 µM (inactive),–,–,> 10 µM (inactive)
Nc1nc(Cl)cc(/N=N\c2ccccc2)n1,38.7 µM (inactive),61.2 µM (inactive),45.8 µM (inactive),–,29.5 µM (inactive),37.2 µM (inactive),31.8 µM (inactive),72.4 µM (inactive),31.3 µM (inactive),30.7 µM (inactive),21 µM (inactive),2.14 µM (inactive),83.8 µM (inactive),35.9 µM (inactive),30.3 µM (inactive),42.1 µM (inactive),36.1 µM (inactive),28.2 µM (inactive),18.5 µM (inactive),9.79 µM (inactive)
O=[N+]([O-])c1ccc(NC(=S)N/N=C(\c2ccccc2)c2ccccn2)cc1,2.1 µM (inactive),1.24 µM (inactive),1.58 µM (inactive),0.229 µM (active),0.0491 µM (active),0.231 µM (active),1.02 µM (active),1.63 µM (inactive),–,1.55 µM (inactive),2.18 µM (inactive),< 0.01 µM (active),1.65 µM (inactive),3.3 µM (inactive),1.38 µM (inactive),1.46 µM (inactive),1.6 µM (inactive),1.24 µM (inactive),–,–
c1ccc(CSCCC(SCc2ccccc2)SCc2ccccc2)cc1,> 10 µM (inactive),> 10 µM (inactive),> 10 µM (inactive),> 10 µM (inactive),> 10 µM (inactive),> 10 µM (inactive),> 10 µM (inactive),–,> 10 µM (inactive),> 10 µM (inactive),> 10 µM (inactive),> 10 µM (inactive),> 10 µM (inactive),> 10 µM (inactive),> 10 µM (inactive),> 10 µM (inactive),> 10 µM (inactive),> 10 µM (inactive),> 10 µM (inactive),> 10 µM (inactive)
COc1ccc(C2c3c(n(C)c(=O)n(C)c3=O)OC(N(C)C)(N(C)C)C2(F)F)cc1 (configuration not stated),> 100 µM (inactive),> 100 µM (inactive),> 100 µM (inactive),> 100 µM (inactive),> 100 µM (inactive),> 100 µM (inactive),> 100 µM (inactive),> 100 µM (inactive),–,> 100 µM (inactive),> 100 µM (inactive),3.2 µM (inactive),–,–,> 100 µM (inactive),> 100 µM (inactive),> 100 µM (inactive),> 100 µM (inactive),> 100 µM (inactive),–
Cc1ccc(S(=O)(=O)N2CCc3cc(O)c([N+](=O)[O-])cc32)cc1,> 100 µM (inactive),> 100 µM (inactive),> 100 µM (inactive),> 100 µM (inactive),> 100 µM (inactive),–,> 100 µM (inactive),> 100 µM (inactive),–,> 100 µM (inactive),> 100 µM (inactive),–,> 100 µM (inactive),> 100 µM (inactive),> 100 µM (inactive),> 100 µM (inactive),> 100 µM (inactive),> 100 µM (inactive),> 100 µM (inactive),–
CC1=NN=C(N)N/C1=C/C(Sc1ccc(Cl)cc1)c1cccs1 (configuration not stated),–,36.2 µM (inactive),16.7 µM (inactive),12.8 µM (inactive),10.6 µM (inactive),14.4 µM (inactive),13.4 µM (inactive),37.9 µM (inactive),12.3 µM (inactive),11.7 µM (inactive),13.9 µM (inactive),13.9 µM (inactive),13.1 µM (inactive),17 µM (inactive),17.4 µM (inactive),4.45 µM (inactive),18.3 µM (inactive),> 10 µM (inactive),16.7 µM (inactive),–
O=C(CCCN1CCC2(CC1)CC(c1ccccc1)OC2=O)c1ccc(F)cc1 (configuration not stated),16.7 µM (inactive),59 µM (inactive),39.2 µM (inactive),40.2 µM (inactive),53.7 µM (inactive),> 100 µM (inactive),15.8 µM (inactive),–,9.06 µM (inactive),25 µM (inactive),53.7 µM (inactive),29.5 µM (inactive),17.8 µM (inactive),40.8 µM (inactive),66.2 µM (inactive),19.4 µM (inactive),23.6 µM (inactive),25.2 µM (inactive),19.6 µM (inactive),19.6 µM (inactive)
Cc1cccc2c1[nH]c1[nH]c(=O)[nH]c(=O)c12,13 µM (inactive),> 100 µM (inactive),> 100 µM (inactive),–,> 100 µM (inactive),83.8 µM (inactive),> 100 µM (inactive),> 100 µM (inactive),> 100 µM (inactive),> 100 µM (inactive),> 100 µM (inactive),> 100 µM (inactive),> 100 µM (inactive),53.3 µM (inactive),> 100 µM (inactive),> 100 µM (inactive),> 100 µM (inactive),> 100 µM (inactive),> 100 µM (inactive),> 100 µM (inactive)
C[C@H]1C[C@H]2[C@@H]3CCC4=CC(=O)C=C[C@]4(C)C3=CC[C@]2(C)[C@@]1(O)C(=O)CO,> 100 µM (inactive),> 100 µM (inactive),> 100 µM (inactive),99.5 µM (inactive),> 100 µM (inactive),50.6 µM (inactive),> 100 µM (inactive),–,> 100 µM (inactive),> 100 µM (inactive),95.1 µM (inactive),> 100 µM (inactive),> 100 µM (inactive),> 100 µM (inactive),> 100 µM (inactive),> 100 µM (inactive),> 100 µM (inactive),> 100 µM (inactive),> 100 µM (inactive),37.7 µM (inactive)
COC(=O)[C@@H]1CN(C(=O)c2ccccc2)C(=O)N1,> 100 µM (inactive),> 100 µM (inactive),> 100 µM (inactive),> 100 µM (inactive),> 100 µM (inactive),> 100 µM (inactive),> 100 µM (inactive),–,> 100 µM (inactive),> 100 µM (inactive),> 100 µM (inactive),> 100 µM (inactive),> 100 µM (inactive),> 100 µM (inactive),> 100 µM (inactive),69.7 µM (inactive),> 100 µM (inactive),> 100 µM (inactive),> 100 µM (inactive),> 100 µM (inactive)
CC(C)C(NC(=O)C(CCCCN)NC(=O)C(Cc1c[nH]c2ccccc12)NC(=O)C(Cc1ccc(O)cc1)NC(=O)C(CS)NC(=O)C(N)Cc1ccc2ccccc2c1)C(=O)NC(CS)C(=O)NC(C(N)=O)C(C)O (configuration not stated) (H-[2Nal]CYWKVCT-NH2; configuration not given here),> 100 µM (inactive),–,> 100 µM (inactive),> 12.5 µM (inactive),> 12.5 µM (inactive),> 12.5 µM (inactive),> 12.5 µM (inactive),–,> 12.5 µM (inactive),> 12.5 µM (inactive),> 12.5 µM (inactive),–,> 12.5 µM (inactive),> 12.5 µM (inactive),> 12.5 µM (inactive),> 12.5 µM (inactive),> 12.5 µM (inactive),> 12.5 µM (inactive),> 12.5 µM (inactive),> 12.5 µM (inactive)
